≈ marks a conversion by molar mass, not a printed value. Calls of active or inactive are those of the source. The calls are words filed in the database; no cut-off is given here. Numbered stars: 1 amine (or outer) side, 2 acyl side, 3 side chain; on linkers, the order of the positions; unused ones are H or OH. Bridge positions count the residues as written; N and C are the ends. Square brackets hold non-standard residues; d marks the D form. Peptide text beside a SMILES is read from it. * marks the point of attachment. pTerphenylCO(4''-OnC5H11) = CCCCCOc1ccc(-c2ccc(-c3ccc(C(=O)*)cc3)cc2)cc1; Orn(4R-OH,5R-OH) = O=C([C@H](C[C@@H](O)[C@@H](O)N[*:3])N[*:1])[*:2]; hTyr(3S-OH,4S-OH) = N[C@H](C(=O)O)[C@H](O)[C@@H](O)c1ccc(O)cc1; Pro(3S-OH,4S-Me) = C[C@H]1CN[C@H](C(=O)O)[C@H]1O; Hyp = O=C(O)[C@@H]1C[C@@H](O)CN1
Assays:
Candida metapsilosis [1] = test: Fungicidal activity against Candida metapsilosis isolate CP-133 bloodstream form by CLSI method; format: functional; conditions: Lodderomyces metapsilosis
Candida orthopsilosis [2] = test: Antifungal activity against Candida orthopsilosis clinical isolate bloodstream form assessed as time required for 99.9% reduction in fungal growth at 16 mg/L by time-kill assay; format: functional
Candida metapsilosis [3] = test: Antifungal activity against Candida metapsilosis clinical isolate bloodstream form assessed as time required for 50% reduction in fungal growth at 32 mg/L by time-kill assay; format: functional
Candida metapsilosis [4] = test: Antifungal activity against Candida metapsilosis clinical isolate bloodstream form assessed as time required for 90% reduction in fungal growth at 4 mg/L by time-kill assay; format: functional
Candida metapsilosis [5] = test: Antifungal activity against Candida metapsilosis clinical isolate bloodstream form assessed as time required for 90% reduction in fungal growth at 0.25 mg/L by time-kill assay; format: functional
Candida parapsilosis [6] = test: Antifungal activity against Candida parapsilosis clinical isolate bloodstream form assessed as time required for 99.9% reduction in fungal growth at 4 mg/L by time-kill assay; format: functional
Candida metapsilosis [7] = test: Antifungal activity against Candida metapsilosis clinical isolate bloodstream form assessed as mild induction of fungal death at 0.03 to 32 mg/L after 6 hrs by time-kill assay; format: functional, organism-based
Candida parapsilosis [8] = test: Antifungal activity against Candida parapsilosis clinical isolate bloodstream form assessed as time required for 90% reduction in fungal growth at 1 mg/L by time-kill assay; format: functional
Candida metapsilosis [9] = test: Antifungal activity against Candida metapsilosis clinical isolate bloodstream form assessed as time required for 90% reduction in fungal growth at 16 mg/L by time-kill assay; format: functional
Candida parapsilosis [10] = test: Antifungal activity against Candida parapsilosis clinical isolate bloodstream form assessed as induction of fungal killing rate at 0.03 to 32 mg/L measured at 6 hrs by time-kill assay; format: functional, organism-based
Candida parapsilosis [11] = test: Antifungal activity against Candida parapsilosis clinical isolate bloodstream form assessed as time required for 50% reduction in fungal growth at 4 mg/L by time-kill assay; format: functional
Candida metapsilosis [12] = test: Antifungal activity against Candida metapsilosis clinical isolate bloodstream form assessed as time required for 99% reduction in fungal growth at 32 mg/L by time-kill assay; format: functional
Candida metapsilosis [13] = test: Antifungal activity against Candida metapsilosis clinical isolate bloodstream form assessed as time required for 50% reduction in fungal growth at 16 mg/L by time-kill assay; format: functional
Candida orthopsilosis [14] = test: Antifungal activity against Candida orthopsilosis clinical isolate bloodstream form assessed as time required for 99.9% reduction in fungal growth at 32 mg/L by time-kill assay; format: functional
Candida parapsilosis [15] = test: Antifungal activity against Candida parapsilosis clinical isolate bloodstream form assessed as time required for 99% reduction in fungal growth at 4 mg/L by time-kill assay; format: functional
Candida metapsilosis [16] = test: Antifungal activity against Candida metapsilosis clinical isolate bloodstream form assessed as time required for 99.9% reduction in fungal growth at 16 mg/L by time-kill assay; format: functional
Candida metapsilosis [17] = test: Antifungal activity against Candida metapsilosis clinical isolate bloodstream form assessed as time required for 90% reduction in fungal growth at 32 mg/L by time-kill assay; format: functional
Candida metapsilosis [18] = test: Antifungal activity against Candida metapsilosis clinical isolate bloodstream form assessed as induction of fungal killing rate at 0.03 to 32 mg/L measured at 6 hrs by time-kill assay; format: functional, organism-based
Candida orthopsilosis [19] = test: Fungicidal activity against Candida orthopsilosis isolate CP-151 bloodstream form by CLSI method; format: functional; conditions: Lodderomyces orthopsilosis
Candida orthopsilosis [20] = test: Antifungal activity against Candida orthopsilosis clinical isolate bloodstream form assessed as time required for 99% reduction in fungal growth at 32 mg/L by time-kill assay; format: functional
Candida metapsilosis [21] = test: Fungicidal activity against Candida metapsilosis isolate CP-132 bloodstream form by CLSI method; format: functional; conditions: Lodderomyces metapsilosis
Candida orthopsilosis [22] = test: Fungicidal activity against Candida orthopsilosis isolate CP-150 bloodstream form by CLSI method; format: functional; conditions: Lodderomyces orthopsilosis
Candida orthopsilosis [23] = test: Antifungal activity against Candida orthopsilosis clinical isolate bloodstream form assessed as time required for 50% reduction in fungal growth at 1 mg/L by time-kill assay; format: functional
Candida orthopsilosis [24] = test: Antifungal activity against Candida orthopsilosis clinical isolate bloodstream form assessed as time required for 99% reduction in fungal growth at 1 mg/L by time-kill assay; format: functional
Candida parapsilosis [25] = test: Antifungal activity against Candida parapsilosis clinical isolate bloodstream form assessed as time required for 50% reduction in fungal growth at 1 mg/L by time-kill assay; format: functional
Candida parapsilosis [26] = test: Antifungal activity against Candida parapsilosis clinical isolate bloodstream form assessed as time required for 50% reduction in fungal growth at 32 mg/L by time-kill assay; format: functional
Candida orthopsilosis [27] = test: Antifungal activity against Candida orthopsilosis clinical isolate bloodstream form assessed as time required for 50% reduction in fungal growth at 16 mg/L by time-kill assay; format: functional
Candida parapsilosis [28] = test: Fungicidal activity against Candida parapsilosis ATCC 22019 bloodstream form by CLSI method; format: functional; conditions: Lodderomyces parapsilosis
Candida orthopsilosis [29] = test: Antifungal activity against Candida orthopsilosis clinical isolate bloodstream form assessed as time required for 50% reduction in fungal growth at 32 mg/L by time-kill assay; format: functional
Candida metapsilosis [30] = test: Antifungal activity against Candida metapsilosis clinical isolate bloodstream form assessed as time required for 99.9% reduction in fungal growth at 0.25 mg/L by time-kill assay; format: functional
Candida parapsilosis [31] = test: Antifungal activity against Candida parapsilosis clinical isolate bloodstream form assessed as time required for 99.9% reduction in fungal growth at 16 mg/L by time-kill assay; format: functional
Candida orthopsilosis [32] = test: Antifungal activity against Candida orthopsilosis clinical isolate bloodstream form assessed as time required for 99.9% reduction in fungal growth at 4 mg/L by time-kill assay; format: functional
Candida parapsilosis [33] = test: Antifungal activity against Candida parapsilosis clinical isolate bloodstream form assessed as time required for 50% reduction in fungal growth at 0.25 mg/L by time-kill assay; format: functional
Candida parapsilosis [34] = test: Fungicidal activity against Candida parapsilosis isolate CP-301 bloodstream form by CLSI method; format: functional; conditions: Lodderomyces parapsilosis
Candida orthopsilosis [35] = test: Antifungal activity against Candida orthopsilosis clinical isolate bloodstream form assessed as time required for 90% reduction in fungal growth at 1 mg/L by time-kill assay; format: functional
Candida orthopsilosis [36] = test: Antifungal activity against Candida orthopsilosis clinical isolate bloodstream form assessed as induction of fungal killing rate at 0.03 to 32 mg/L measured at 6 hrs by time-kill assay; format: functional, organism-based
Candida parapsilosis [37] = test: Antifungal activity against Candida parapsilosis clinical isolate bloodstream form assessed as time required for 90% reduction in fungal growth at 0.25 mg/L by time-kill assay; format: functional
Candida metapsilosis [38] = test: Antifungal activity against Candida metapsilosis clinical isolate bloodstream form assessed as time required for 90% reduction in fungal growth at 1 mg/L by time-kill assay; format: functional
Candida orthopsilosis [39] = test: Antifungal activity against Candida orthopsilosis clinical isolate bloodstream form assessed as time required for 90% reduction in fungal growth at 0.25 mg/L by time-kill assay; format: functional
Candida metapsilosis [40] = test: Antifungal activity against Candida metapsilosis clinical isolate bloodstream form assessed as time required for 99.9% reduction in fungal growth at 4 mg/L by time-kill assay; format: functional
Candida parapsilosis [41] = test: Antifungal activity against Candida parapsilosis clinical isolate bloodstream form assessed as time required for 90% reduction in fungal growth at 4 mg/L by time-kill assay; format: functional
Candida metapsilosis [42] = test: Antifungal activity against Candida metapsilosis clinical isolate bloodstream form assessed as time required for 99% reduction in fungal growth at 1 mg/L by time-kill assay; format: functional
Candida metapsilosis [43] = test: Antifungal activity against Candida metapsilosis clinical isolate bloodstream form assessed as time required for 50% reduction in fungal growth at 4 mg/L by time-kill assay; format: functional

In the case of CCCCCOc1ccc(-c2ccc(-c3ccc(C(=O)N[C@H]4C[C@@H](O)[C@@H](O)NC(=O)[C@@H]5[C@@H](O)[C@@H](C)CN5C(=O)[C@H]([C@@H](C)O)NC(=O)[C@H]([C@H](O)[C@@H](O)c5ccc(O)cc5)NC(=O)[C@@H]5C[C@@H](O)CN5C(=O)[C@H]([C@@H](C)O)NC4=O)cc3)cc2)cc1 [ANIDULAFUNGIN] ({pTerphenylCO(4''-OnC5H11)}-[Orn(4R-OH,5R-OH)]T[Hyp][hTyr(3S-OH,4S-OH)]T[Pro(3S-OH,4S-Me)]; lactam 1-C), the MIC (Candida metapsilosis [1]) is reported as 0.06 µg/mL (≈ 0.0526 µM), the Time (Candida orthopsilosis [2]) is reported as 18.73 h and the Time (Candida metapsilosis [3]) is reported as 1.41 h. It also gave a Time (Candida metapsilosis [4]) of 7.94 h, a Time (Candida metapsilosis [5]) of 25.71 h and a Time (Candida parapsilosis [6]) greater than 48 h. For the same compound, the Activity (Candida metapsilosis [7]) was “Active”, the Time (Candida parapsilosis [8]) was “inactive” and the Time (Candida metapsilosis [9]) was 5.01 h. For the same compound, the Activity (Candida parapsilosis [10]) was “inactive”, the Time (Candida parapsilosis [11]) was 26.41 h and the Time (Candida metapsilosis [12]) was 9.37 h. It also gave a Time (Candida metapsilosis [13]) of 1.51 h, a Time (Candida orthopsilosis [14]) of 14.72 h and a Time (Candida parapsilosis [15]) greater than 48 h. For the same compound, the Time (Candida metapsilosis [16]) was 15.03 h, the Time (Candida metapsilosis [17]) was 4.69 h and the Activity (Candida metapsilosis [18]) was “inactive”. For the same compound, the MIC (Candida orthopsilosis [19]) was 0.5 µg/mL (≈ 0.438 µM), the Time (Candida orthopsilosis [20]) was 9.81 h and the MIC (Candida metapsilosis [21]) was 0.06 µg/mL (≈ 0.0526 µM). The MIC (Candida orthopsilosis [22]) was 0.25 µg/mL (≈ 0.219 µM), the Time (Candida orthopsilosis [23]) was 6.36 h and the Time (Candida orthopsilosis [24]) was 42.28 h. For the same compound, the Time (Candida parapsilosis [25]) was “inactive”, the Time (Candida parapsilosis [26]) was 4.2 h and the Time (Candida orthopsilosis [27]) was 1.88 h. It also gave an MIC (Candida parapsilosis [28]) of 1 µg/mL (≈ 0.877 µM), a Time (Candida orthopsilosis [29]) of 1.48 h and a Time (Candida metapsilosis [30]) of 77.12 h. For the same compound, the Time (Candida parapsilosis [31]) was greater than 48 h, the Time (Candida orthopsilosis [32]) was 27.25 h and the Time (Candida parapsilosis [33]) was “inactive”. The MIC (Candida parapsilosis [34]) was 1 µg/mL (≈ 0.877 µM), the Time (Candida orthopsilosis [35]) was 21.14 h and the Activity (Candida orthopsilosis [36]) was “inactive”. For the same compound, the Time (Candida parapsilosis [37]) was “inactive”, the Time (Candida metapsilosis [38]) was 5.22 h and the Time (Candida orthopsilosis [39]) was greater than 48 h. For the same compound, the Time (Candida metapsilosis [40]) was 23.83 h, the Time (Candida parapsilosis [41]) was greater than 48 h and the Time (Candida metapsilosis [42]) was 10.44 h. For the same compound, the Time (Candida metapsilosis [43]) was 2.39 h.
